The values below are quoted from earlier work in patent publication US11351185B2, “Use of isovalerylspiramycins as anti-cancer agents to inhibit metastasis” (priority 2020, dated 2022).

The subject of data set [1] is in vivo cancer parameters. As to conditions: animal models; cited from earlier work.
Another data set deals with human cancer lines. To be noted: MCF-7, MDA-MB-231, HepG2, A549, H460, H1299, 786-0, 769-P, U251, A172, U937, HeLa, PC3, PANC-1, TE-1, SGC-7901, HT-29, HL-60; cited from earlier work.

For `CO[C@@H]1[C@@H](O[C@@H]2O[C@H](C)[C@@H](O[C@H]3C[C@@](C)(O)[C@@H](OC(=O)CC(C)C)[C@H](C)O3)[C@H](N(C)C)[C@H]2O)[C@@H](CC=O)C[C@@H](C)[C@@H](O[C@H]2CC[C@H](N(C)C)[C@@H](C)O2)/C=C/C=C/C[C@@H](C)OC(=O)C[C@H]1OC(C)=O` [ISP II, 4″-isolvalerylspiramycin II], in data set [1], the “in vivo cancer parameters such as tumor growth rate and relative tumor volume” value is recorded as “reduction”. Also, in the data set on human cancer lines, the “effect on proliferation in vitro of human cancer lines” value was “inhibitory effect”.
For `CCC(=O)O[C@@H]1CC(=O)O[C@H](C)C/C=C/C=C/[C@H](O[C@H]2CC[C@H](N(C)C)[C@@H](C)O2)[C@H](C)C[C@H](CC=O)[C@H](O[C@@H]2O[C@H](C)[C@@H](O[C@H]3C[C@@](C)(O)[C@@H](OC(=O)CC(C)C)[C@H](C)O3)[C@H](N(C)C)[C@H]2O)[C@H]1OC` [ISP III, 4″-isolvalerylspiramycin III], the “in vivo cancer parameters such as tumor growth rate and relative tumor volume” value in data set [1] is given as “reduction”. Besides, the “effect on proliferation in vitro of human cancer lines” value with human cancer lines is given as “inhibitory effect”.
